Assay results: US12269793B2, “Affinity illudofulvene conjugates” (AF Chemicals, LLC, priority 2019, dated 2025)
Read-outs that look alike come from different tables or passages of the source. Where a SMILES comes first, the peptide text is derived from it. [ ]: non-standard residue; d: D form. The star is where a group is joined. X4 = CC1=C(C*)C2=C(C)C3(CC3)[C@@](C)(O)C(=O)C2=C1

What was measured:
Assay in all cases: cells
[1] = tested on: 8392B Nontarget Cell Line (hematopoietic); settings: 48 h, read-out: Mean IC50 value
[2] = tested on: 8392B Nontarget Cell Line (hematopoietic); settings: 2 h
[3] = tested on: MV522 Target Cell Line (lung-derived adenocarcinoma); settings: MV522, 2 h, read-out: Mean IC50 value
[4] = tested on: MV522 Target Cell Line (lung-derived adenocarcinoma); settings: MV522, 48 h, read-out: Mean IC50 value
[5] = read-out: Mean IC50 value, 8392B Nontarget Cell Line, 2 hr exposure, ± SD, N = 3 unless otherwise indicated

## CC1=C(C=O)C2=C(C)C3(CC3)[C@@](C)(O)C(=O)C2=C1 [Analog 011]
[1]
  IC50: 40.4 ± 6.7 µM
[2]; [5]
  IC50: > 100 µM
[3]
  IC50: 4.9 ± 0.9 µM

## C/C(C=O)=C1\[C@@H](O)C[C@]1(C)[C@H]1CC(C)(C)C[C@@H]1O [Analog 105]
[2]; read-out: Mean IC50 value
  IC50: > 100 µM
[4]
  IC50: 2.1 ± 0.4 µM
[3]
  IC50: 7.3 ± 1.2 µM

## CC1=C2C(=C[C@@](C)(COC(=O)c3cc([N+](=O)[O-])cc([N+](=O)[O-])c3)C2OC(=O)CCCC(=O)O)C(=O)[C@](C)(O)C12CC2 (stereo partly drawn) [Analog 118]
[2]; [5]
  IC50: 24.5 ± 4.5 µM

## CC1=C(CSCc2ccccc2)C2=C(C)C3(CC3)[C@@](C)(O)C(=O)C2=C1 [Analog 024]
[2]; [5]
  IC50: 12.8 ± 2.1 µM

## CC1=C(CCC=O)C2=C(C)C3(CC3)[C@@](C)(O)C(=O)C2=C1 [Analog 010]
[1]
  IC50: 14.5 ± 1.7 µM
[2]; [5]
  IC50: 29.4 ± 1.6 µM

## CC1=C2C(=CC(C)(C)[C@@H]2OC(=O)CCCC(=O)O)C(=O)[C@](C)(O)C12CC2 [Analog 106]
[2]; [5]
  IC50: > 83 µM
[3]
  IC50: 5.2 ± 1 µM

## COC(=O)CSCC1=C(C)C(SCC(=O)OC)=C2C(=O)[C@](C)(O)C3(CC3)C(C)=C12 [Analog 030]
[4]
  IC50: > 3 µM

## CC1=C(CO[C@@H]2O[C@@H](CO)[C@H](O)[C@@H](O)[C@@H]2O)C2=C(C)C3(CC3)[C@@](C)(O)C(=O)C2=C1 [Analog 018]
[3]
  IC50: 8.8 ± 2.9 µM

## CC(=O)N[C@@H](CSCC1=CC=C2C(=O)[C@](C)(O)C3(CC3)C(C)=C12)C(=O)N[C@@H](C)c1ccccc1 [Analog 065]
[3]
  IC50: 6.2 ± 1.1 µM

## CC(=O)OCC1=C(C)C=C2C(=O)[C@](C)(O)C3(CC3)C(C)=C21 [Analog 034]
[2]; [5]
  IC50: > 100 µM
[4]
  IC50: 0.49 ± 0.04 µM

## CC1=C(CCC=NO)C2=C(C)C3(CC3)[C@@](C)(O)C(=O)C2=C1 [Analog 115]
[1]
  IC50: 0.63 ± 0.06 µM

## CC1=C(CCC=NNC(N)=O)C2=C(C)C3(CC3)[C@@](C)(O)C(=O)C2=C1 [Analog 121]
[2]; [5]
  IC50: 15.2 ± 6 µM

## CC1=C(CSc2ccc(O)cc2)C2=C(C)C3(CC3)[C@@](C)(O)C(=O)C2=C1 [Analog 023]
[2]; [5]
  IC50: > 138 µM
[4]
  IC50: 2.75 ± 0.5 µM
[3]
  IC50: 2.9 ± 1.14 µM

## CC(=O)N[C@@H](CSCC1=C(C)C=C2C(=O)[C@](C)(O)C3(CC3)C(C)=C21)C(=O)N[C@@H](CC(C)C)C(=O)N[C@H](CC(C)C)C(=O)N[C@H](C=O)CC(C)C [Analog 087] (Ac-C(X4)L[dL]L-aldehyde)
[2]; [5]
  IC50: > 40 µM
[4]
  IC50: 24.7 ± 3.9 µM
[3]
  IC50: > 40 µM

## CC1=C(CSC[C@H](N)C(=O)N[C@@H](CC(N)=O)C(=O)NCC(=O)N[C@@H](CCCNC(=N)N)C(=O)N[C@@H](CS)C(=O)O)C2=C(C)C3(CC3)[C@@](C)(O)C(=O)C2=C1 [Analog 102] (H-C(X4)NGRC-OH)
[3]
  IC50: > 13 µM

## CC1=C(CC2CC(C=O)CC(C=O)C2O)C2=C(C)C3(CC3)[C@@](C)(O)C(=O)C2=C1 (stereo partly drawn) [Analog 013]
[3]
  IC50: 5.1 ± 0.7 µM

## CC1=C(CCC(=O)O)C2=C(C)C3(CC3)[C@@](C)(O)C(=O)C2=C1 [Analog 038]
[2]; [5]
  IC50: 24.9 ± 8 µM
[3]
  IC50: 0.75 ± 0.06 µM

## COC(=O)CSCC1=C(C)C(SCC(=O)OC)C2(O)C(=O)[C@](C)(O)C3(CC3)C(C)=C12 (stereo partly drawn) [Analog 031]
[4]
  IC50: > 3 µM

## COC(C)(C)OCC1=C(C)C=C2C(=O)[C@](C)(O)C3(CC3)C(C)=C21 [Analog 021]
[2]; [5]
  IC50: 34.4 ± 9.4 µM
[4]
  IC50: 0.93 ± 0.25 µM

## CCOC(CCC1=C(C)C=C2C(=O)[C@](C)(O)C3(CC3)C(C)=C21)OCC [Analog 040]
[1]
  IC50: 5.2 ± 0.47 µM

## CC1=C(CCCO)C2=C(C)C3(CC3)[C@@](C)(O)C(=O)C2=C1 [Analog 009]
[1]
  IC50: 43.2 ± 2.3 µM
[2]; [5]
  IC50: 47.1 ± 11 µM

## CC(=O)OCC1=C(CO)C=C2C(=O)[C@](C)(O)C3(CC3)C(C)=C21 [Analog 078]
[2]; [5]
  IC50: > 100 µM
[3]
  IC50: 20.4 ± 6.3 µM

## CC(=O)OCC1=C(COC(C)=O)C2=C(C)C3(CC3)[C@@](C)(O)C(=O)C2=C1 [Analog 076]
[2]; [5]
  IC50: 39.5 ± 7.2 µM

## CC(=O)OCC1=CC2=C(C)C3(CC3)[C@@](C)(O)C(=O)C2=C1 [Analog 075]
[2]; [5]
  IC50: 62 ± 3.6 µM
[3]
  IC50: 19.6 ± 9.7 µM

## CC1=C2C(=CC(C)(C)[C@@H]2OC(=O)CCCC(=O)Oc2ccc3c(c2)CCC2C3CC[C@]3(C)C(=O)CCC23)C(=O)[C@](C)(O)C12CC2 (stereo partly drawn) [Analog 107]
[2]; read-out: Mean IC50 value
  IC50: > 50 µM
[3]
  IC50: > 50 µM

## CC1=C(COCC2=C(C)C=C3C(=O)[C@](C)(O)C4(CC4)C(C)=C32)C2=C(C)C3(CC3)[C@@](C)(O)C(=O)C2=C1 [Analog 017]
[2]; [5]
  IC50: 14.7 ± 0.9 µM
[4]
  IC50: 0.32 ± 0.06 µM

## CC1=C(COC(C)(C)C)C2=C(C)C3(CC3)[C@@](C)(O)C(=O)C2=C1 [Analog 116]
[2]; [5]
  IC50: 7 ± 0.4 µM
[3]
  IC50: 0.4 ± 0.1 µM

## CC1=C(CSC[C@H](NC(=O)CC[C@@H](N)C(=O)O)C(=O)NCC(=O)O)C2=C(C)C3(CC3)[C@@](C)(O)C(=O)C2=C1 [Analog 089]
[2]; [5]
  IC50: > 60 µM
[4]
  IC50: 15.5 ± 2.8 µM
[3]
  IC50: 19.3 ± 5.7 µM

## CC1=C2C(=CC3=C2COCOC3)C(=O)[C@](C)(O)C12CC2 [Analog 104]
[2]; [5]
  IC50: 36.4 ± 6.5 µM

## CC1=C2C=CC=C2[C@@H](O)C2(OCCO2)C12CC2 [Analog 060]
[2]; read-out: Mean IC50 value
  IC50: 27.6 ± 3 µM
[3]
  IC50: 19.4 ± 1.8 µM

## CC1=C(CCC=NNc2ccccc2)C2=C(C)C3(CC3)[C@@](C)(O)C(=O)C2=C1 [Analog 122]
[2]; [5]
  IC50: 14.5 ± 1.2 µM

## CC1=C(Br)C2=C(C)C3(CC3)[C@@](C)(O)C(=O)C2=C1 [Analog 004]
[4]
  IC50: 0.6 µM
